# In patent US9265771B2, “Method for treating Lyme disease” (Zoetis Services LLC, priority 2012, dated 2016):
# What was measured:
# Format in all cases: in vivo, beagle dogs
# [1] = test system: B. burgdorferi outer surface protein OspF; assay: Study B: fluorescent-bead-based multiplex assay, antibodies against OspF; conditions: for Multiplex Assay OspF: No. Dogs > Positive Threshold (# dogs > 1500): 8 dogs/group
# Experimental: (§1) Thirty-two (18 male and 14 female) beagle dogs were sero-negative for Borrelia burgdorferi, not vaccinated with any Borrelia spp vaccines, and acclimated at the study facility for seven days. The study was conducted under National Research Council guidelines (1996). […] Field-caught Ixodes from the northeast USA were placed on the dogs without containment chambers for 10 days; after ticks fed to repletion, dogs were treated with two applications of an approved topical acaricide with a 30-day interval between applications.
# Forty days post-challenge, and prior to antibiotic treatments, blood was collected from each dog as were two skin biopsy punch samples near tick attachment sites. Blood was collected approximately monthly post-treatment. Skin biopsies were taken near the tick attachment site on Days 48/49, 118, 146, 180, and 315. Serum antibodies to Borrelia were assayed using the IDEXX SNAP-4Dx and QC6 ELISA. In cooperation with Cornell University, serum samples were analyzed using fluorescent-bead-based multiplex assays detecting antibodies against B. burgdorferi outer surface proteins OspA, OspC, and OspF. […] The skin biopsies were collected for a polymerase chain reaction (PCR; FlaB) assay and cultured for spirochete detection. At the end of the study, blood and skin biopsies were collected and synovial tissue from the joints were harvested at necropsy.
# On Day 75 and Day 89 Convenia was administered to the eight dogs in T04 (8 mg/kg bodyweight; subcutaneous injection). The other treated groups received their respective regimens daily and orally for 30 days from Days 75 to 104. […] Dogs in T01 served as infected, untreated, controls.
# [2] = test system: B. burgdorferi; assay: Study B: SNAP-4Dx ELISA in tick-infected dogs; conditions: N = 8/group
# From the text: (§2) Three outer surface proteins (Osp) on B. burgdorferi are important for diagnosis and prevention, and are expressed by the organism in response to its local environment. […] OspF is another surface protein that is generally observed in late-stage disease. The C in […] refers to a 25-amino acid, C6 peptide in the sixth invariable region of an outer membrane lipoprotein (VIsE). Antibody against C6 is highly accurate as a serologic diagnosis of Lyme disease independent of a subject's (e.g., canine) vaccination status. Further, the generation of C6 antibodies implies an active infection with viable spirochetes. Serological methods for detecting B. burgdorfer/Lyme disease were conducted using the IDEXX qualitative SNAP-4Dx ELISA and the Quantitative C6 (Quant C6 or QC6) diagnostic kits, which are enzyme linked immunosorbent assays against the previously described 25-amino-acid C6 peptide. QC6 ELISA data, units/mL, are useful for guidance in initiating and evaluating response to therapy (See Levy S A, O'Connor T P, Hanscom J L, Shields P, et al. Quantitative measurement of a C6 antibody following antibiotic treatment of Borrelia burgdorferi antibody-positive, nonclinical dogs. Clin Vacc Immunol 2008; 15(1):115-119 and Littman M P, Goldstein R E, Labato M A, et al. ACVIM Small Animal Concensus Statement on Lyme Disease in Dogs: Diagnosis, Treatment and Prevention. J Vet Intern Med 2006; 20: 422-434).
# as §1
# (§3) Forty days post-challenge, and prior to antibiotic treatments, blood was collected from each dog as were two skin biopsy punch samples near tick attachment sites. Blood was collected approximately monthly post-treatment. Skin biopsies were taken near the tick attachment site on Days 48/49, 118, 146, 180, and 315. Serum antibodies to Borrelia were assayed using the IDEXX SNAP-4Dx and QC6 ELISA. In cooperation with Cornell University, serum samples were analyzed using fluorescent-bead-based multiplex assays detecting antibodies against B. burgdorferi outer surface proteins OspA, OspC, and OspF. Data were expressed as median fluorescent intensities (MFI), and shown to be specific and sensitive to provide interpretative guidelines regarding infection. The skin biopsies were collected for a polymerase chain reaction (PCR; FlaB) assay and cultured for spirochete detection. At the end of the study, blood and skin biopsies were collected and synovial tissue from the joints were harvested at necropsy.
# (§4) On Day 75 and Day 89 Convenia was administered to the eight dogs in T04 (8 mg/kg bodyweight; subcutaneous injection). The other treated groups received their respective regimens daily and orally for 30 days from Days 75 to 104. […] Dogs in T01 served as infected, untreated, controls. Inter-treatment comparisons to evaluate antibiotic efficacy included clinical signs, serology, culture results and pathology.
# [3] = test system: B. burgdorferi; assay: Study B: QC6 ELISA in tick-infected dogs; conditions: 8 dogs/group
# From the text: as §2, §1, §3, §4
# [4] = test system: B. burgdorferi; assay: Study B: microscopic examination of joints and skin at necropsy; conditions: for Number of Joints with Changes as Described for Lyme disease: N = 8
# Experimental: as §1, §3, §4
# At necropsy ten joints were harvested per each dog, formalin-fixed, stained and examined microscopically. Joints included the carpus, elbow, shoulder, stifle and tarsus on both the right and left limbs. Further, a section of skin near tick attachment sites was evaluated from each dog. There were two dogs in the Convenia group (25%) with tissues showing changes as described for Lyme disease, compared to seven controls (87.5%) and three (37.5%) to four (50.0%) dogs in the other antibiotic-treated groups (Table 7). […] The Convenia group had the lowest incidence of joint changes with six affected of 80.
# [5] = joints, skin, 8 dogs/group, necropsy
compound,measurement,setting,value
C[C@H]1c2cccc(O)c2C(=O)C2=C(O)[C@]3(O)C(=O)C(C(N)=O)=C(O)[C@@H](N(C)C)[C@@H]3[C@@H](O)[C@@H]21 [doxycycline],Multiplex Assay OspF: MFI Mean,[1]; Day 48 (pre-treatment),943.38 MFI
same,Multiplex Assay OspF: No. Dogs > Positive Threshold (# dogs > 1500),[1]; Day 48 (pre-treatment),1
same,Multiplex Assay OspF: MFI Mean,[1]; Day 111,1174.38 MFI
same,Multiplex Assay OspF: No. Dogs > Positive Threshold (# dogs > 1500),[1]; Day 111,1
same,Multiplex Assay OspF: MFI Mean,[1]; Day 145,490.63 MFI
same,Multiplex Assay OspF: No. Dogs > Positive Threshold (# dogs > 1500),[1]; Day 145,0
same,Multiplex Assay OspF: MFI Mean,[1]; Day 179,395.88 MFI
same,Multiplex Assay OspF: No. Dogs > Positive Threshold (# dogs > 1500),[1]; Day 179,0
same,Multiplex Assay OspF: MFI Mean,[1]; Day 221,334.75 MFI
same,Multiplex Assay OspF: No. Dogs > Positive Threshold (# dogs > 1500),[1]; Day 221,0
same,Multiplex Assay OspF: MFI Mean,[1]; Day 251,340.88 MFI
same,Multiplex Assay OspF: No. Dogs > Positive Threshold (# dogs > 1500),[1]; Day 251,0
same,Multiplex Assay OspF: MFI Mean,[1]; Day 281,343.63 MFI
same,Multiplex Assay OspF: No. Dogs > Positive Threshold (# dogs > 1500),[1]; Day 281,0
same,Multiplex Assay OspF: MFI Mean,[1]; Day 314,353.25 MFI
same,Multiplex Assay OspF: No. Dogs > Positive Threshold (# dogs > 1500),[1]; Day 314,0
same,Multiplex Assay OspF: MFI Mean,[1]; Day −15 (pre-infection),113.50 MFI
same,Multiplex Assay OspF: No. Dogs > Positive Threshold (# dogs > 1500),[1]; Day −15 (pre-infection),0
same,"SNAP-4Dx Positives, Number of Dogs",[2]; Day 48 (pre-treatment; antibiotics from Day 75),6
same,"SNAP-4Dx Positives, Number of Dogs",[2]; Day 111,7
same,"SNAP-4Dx Positives, Number of Dogs",[2]; Day 145,6
same,"SNAP-4Dx Positives, Number of Dogs",[2]; Day 179,1
same,"SNAP-4Dx Positives, Number of Dogs",[2]; Day 221,0
same,"SNAP-4Dx Positives, Number of Dogs",[2]; Day 251,0
same,"SNAP-4Dx Positives, Number of Dogs",[2]; Day 281,0
same,"SNAP-4Dx Positives, Number of Dogs",[2]; Day 315,0
same,"SNAP-4Dx Positives, Number of Dogs",[2]; Day −15 (pre-infection),0
same,"Dogs Sero-converted to B. burgdorferi per QC6 ELISA (≧30 U/mL), (%)",[3]; Day 48 (pre-treatment),75.0%
same,"Number of Dogs Sero-converted to B. burgdorferi per QC6 ELISA (≧30 U/mL), No.",[3]; Day 48 (pre-treatment),6
same,"Dogs Sero-converted to B. burgdorferi per QC6 ELISA (≧30 U/mL), (%)",[3]; Day 111,62.5%
same,"Number of Dogs Sero-converted to B. burgdorferi per QC6 ELISA (≧30 U/mL), No.",[3]; Day 111,5
same,"Dogs Sero-converted to B. burgdorferi per QC6 ELISA (≧30 U/mL), (%)",[3]; Day 145,0.0%
same,"Number of Dogs Sero-converted to B. burgdorferi per QC6 ELISA (≧30 U/mL), No.",[3]; Day 145,0
same,"Dogs Sero-converted to B. burgdorferi per QC6 ELISA (≧30 U/mL), (%)",[3]; Day 179,0.0%
same,"Number of Dogs Sero-converted to B. burgdorferi per QC6 ELISA (≧30 U/mL), No.",[3]; Day 179,0
same,"Dogs Sero-converted to B. burgdorferi per QC6 ELISA (≧30 U/mL), (%)",[3]; Day 221,0.0%
same,"Number of Dogs Sero-converted to B. burgdorferi per QC6 ELISA (≧30 U/mL), No.",[3]; Day 221,0
same,"Dogs Sero-converted to B. burgdorferi per QC6 ELISA (≧30 U/mL), (%)",[3]; Day 251,0.0%
same,"Number of Dogs Sero-converted to B. burgdorferi per QC6 ELISA (≧30 U/mL), No.",[3]; Day 251,0
same,"Dogs Sero-converted to B. burgdorferi per QC6 ELISA (≧30 U/mL), (%)",[3]; Day 281,0.0%
same,"Number of Dogs Sero-converted to B. burgdorferi per QC6 ELISA (≧30 U/mL), No.",[3]; Day 281,0
same,"Dogs Sero-converted to B. burgdorferi per QC6 ELISA (≧30 U/mL), (%)",[3]; Day 314,0.0%
same,"Number of Dogs Sero-converted to B. burgdorferi per QC6 ELISA (≧30 U/mL), No.",[3]; Day 314,0
same,"Number of Joints with Changes as Described for Lyme disease, Cumulative",[4]; 80 total/group,11
same,Number of Joints with Changes as Described for Lyme disease,[4]; Carpus L,1
same,Number of Joints with Changes as Described for Lyme disease,[4]; Carpus R,2
same,Number of Joints with Changes as Described for Lyme disease,[4]; Elbow L,1
same,Number of Joints with Changes as Described for Lyme disease,[4]; Elbow R,1
same,Number of Joints with Changes as Described for Lyme disease,[4]; Shoulder L,1
same,Number of Joints with Changes as Described for Lyme disease,[4]; Shoulder R,0
same,Number of Joints with Changes as Described for Lyme disease,[4]; Stifle L,1
same,Number of Joints with Changes as Described for Lyme disease,[4]; Stifle R,2
same,Number of Joints with Changes as Described for Lyme disease,[4]; Tarsus L,2
same,Number of Joints with Changes as Described for Lyme disease,[4]; Tarsus R,0
same,"No Tissue Changes, # Dogs",[4]; [5],5
same,"No Tissue Changes, %",[4]; [5],62.5%
same,"Tissue Changes Described for Lyme Disease, # Dogs",[4]; [5],3
same,"Tissue Changes Described for Lyme Disease, %",[4]; [5],37.5%
